Converted amounts (≈) assume the structure as drawn. Where two headings read alike, the source gives them in different places.
What was measured:
Type in all cases: cell-based
E. coli ATCC 10596 = test: MIC by broth microdilution, E. coli; conditions: Escherichia coli, read-out: E. coli ATCC 10536 MIC
Summary of the method: (§1)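 Overnight cultures diluted to ~5×10^5 cfu/mL final; S. aureus in TSB and CAMHB, E. coli in LB and CAMHB, zinc sulphate to 50 μM final as required; two-fold serial dilutions. MIC = lowest concentration with no growth by OD600 after 24 h, 37° C, 200 rpm. MBC by Miles-Misra drop-plate viability count.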

S. uberis ATCC 19436 = test: MIC by broth microdilution, S. uberis; conditions: Streptococcus uberis, read-out: S. uberis ATCC 19436 MIC
Summary of the method: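 This broth microdilution assay used S. uberis ATCC 19436 in Todd Hewitt Broth, with zinc sulphate heptahydrate added where required to a final 50 μM. Inhibitor concentration ranges came from two-fold serial dilutions in 96-well flat bottom plates at 200 μl. Approximately 5×10^5 cfu/mL cells were incubated for 24 h at 37° C. and 200 rpm. Wells were then read at OD600 on a Varioskan Flash reader.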

S. aureus ATCC 6538 = test: MIC by broth microdilution, S. aureus; conditions: Staphylococcus aureus, read-out: S. aureus ATCC 6538 MIC
Summary of the method: as §1

[1] = ATCC 10536 / ATCC 10596, No Zinc
[2] = ATCC 10536 / ATCC 10596, Zinc (50 μM)

Compound	MIC (E. coli ATCC 10596; [1])	MIC (E. coli ATCC 10596; [2])	MIC (S. uberis ATCC 19436; ATCC19436, No Zinc)	MIC (S. uberis ATCC 19436; ATCC19436, Zinc (50 μM))	MIC (S. aureus ATCC 6538; ATCC6538, No Zinc)	MIC (S. aureus ATCC 6538; ATCC6538, Zinc (50 μM))
CN(C)Cc1ccc2cccc(NS(=O)(=O)c3cccc(F)c3)c2n1 [ZDR312, N-(2-((Dimethylamino)methyl)quinolin-8-yl)-3-fluorobenzenesulfonamide]	> 256 µg/mL	> 256 µg/mL	128 µg/mL (≈ 356 µM)	0.125 µg/mL (≈ 0.348 µM)	256 µg/mL (≈ 712 µM)	256 µg/mL (≈ 712 µM)
N/C(=N\[N+](=O)[O-])NCCNCc1ccc2cccc(NS(=O)(=O)c3ccc(C(F)(F)F)cc3)c2n1 [ZDR145, (E)-N-(2-(((2-(2-Nitroguanidino)ethyl)amino)methyl)quinolin-8-yl)-4-(trifluoromethyl)benzenesulfonamide]	128 µg/mL (≈ 250 µM)	256 µg/mL (≈ 501 µM)	> 256 µg/mL	> 256 µg/mL	64 µg/mL (≈ 125 µM)	128 µg/mL (≈ 250 µM)
CCN(CC)Cc1ccc2cccc(NS(=O)(=O)c3ccc(C(F)(F)F)cc3)c2n1 [ZDR028, N-(2-((Diethylamino)methyl)quinolin-8-yl)-4-(trifluoromethyl)-benzenesulfonamide]	> 256 µg/mL	> 256 µg/mL	128 µg/mL (≈ 293 µM)	0.125 µg/mL (≈ 0.286 µM)	256 µg/mL (≈ 585 µM)	> 256 µg/mL
O=S(=O)(Nc1cccc2ccc(CNCC3CCCCC3)nc12)c1ccc(C(F)(F)F)cc1 [ZDR406, N-(2-(((Cyclohexylmethyl)amino)methyl)quinolin-8-yl)-4-(trifluoromethyl)benzenesulfonamide]	64 µg/mL (≈ 134 µM)	256 µg/mL (≈ 536 µM)	16 µg/mL (≈ 33.5 µM)	0.125 µg/mL (≈ 0.262 µM)	32 µg/mL (≈ 67 µM)	128 µg/mL (≈ 268 µM)
CN(C)Cc1ccc2cccc(NS(C)(=O)=O)c2n1 [ZDR078, N-(2-((Dimethylamino)methyl)quinolin-8-yl)methanesulfonamide]	> 256 µg/mL	> 256 µg/mL	> 256 µg/mL	2 µg/mL (≈ 7.16 µM)	> 256 µg/mL	> 256 µg/mL
CN(C)Cc1ccc2cccc(NS(=O)(=O)c3ccsc3)c2n1 [ZDR081, N-(2-((Dimethylamino)methyl)quinolin-8-yl)thiophene-3-sulfonamide]	> 256 µg/mL	> 256 µg/mL	256 µg/mL (≈ 737 µM)	0.25 µg/mL (≈ 0.719 µM)	> 256 µg/mL	> 256 µg/mL
CN(C)Cc1ccc2cccc(NS(=O)(=O)c3ccc(C#N)cc3)c2n1 [ZDR068, 4-Cyano-N-(2-((dimethylamino)methyl)quinolin-8-yl)benzenesulfonamide]	> 256 µg/mL	> 256 µg/mL	> 256 µg/mL	1 µg/mL (≈ 2.73 µM)	> 256 µg/mL	> 256 µg/mL
CN(C)Cc1ccc2cccc(NS(=O)(=O)c3cccc4cccnc34)c2n1 [ZDR340, N-(2-((Dimethylamino)methyl)quinolin-8-yl)quinoline-8-sulfonamide]	> 256 µg/mL	> 256 µg/mL	64 µg/mL (≈ 163 µM)	0.25 µg/mL (≈ 0.637 µM)	> 256 µg/mL	32 µg/mL (≈ 81.5 µM)
Cc1ccc(S(=O)(=O)Nc2cccc3ccc(CN(C)C)nc23)cc1 [ZDR062, N-(2-((Dimethylamino)methyl)quinolin-8-yl)-4-methylbenzenesulfonamide]	> 256 µg/mL	> 256 µg/mL	256 µg/mL (≈ 720 µM)	0.25 µg/mL (≈ 0.703 µM)	256 µg/mL (≈ 720 µM)	> 256 µg/mL
CN(C)Cc1ccc2cccc(NS(=O)(=O)C3CCOCC3)c2n1 [ZDR502, N-(2-((Dimethylamino)methyl)quinolin-8-yl)tetrahydro-2H-pyran-4-sulfonamide]	> 256 µg/mL	> 256 µg/mL	> 256 µg/mL	0.25 µg/mL (≈ 0.715 µM)	> 256 µg/mL	> 256 µg/mL
CN(C)Cc1ccc2cccc(NS(=O)(=O)c3ccccc3F)c2n1 [ZDR201, N-(2-((Dimethylamino)methyl)quinolin-8-yl)-2-fluorobenzenesulfonamide]	> 256 µg/mL	> 256 µg/mL	128 µg/mL (≈ 356 µM)	0.0625 µg/mL (≈ 0.174 µM)	> 256 µg/mL	32 µg/mL (≈ 89 µM)
CN(C)Cc1ccc2cccc(NS(=O)(=O)c3ccc(OC(F)(F)F)cc3)c2n1 [ZDR066, N-(2-((Dimethylamino)methyl)quinolin-8-yl)-4-(trifluoromethoxy)benzenesulfonamide]	> 256 µg/mL	> 256 µg/mL	128 µg/mL (≈ 301 µM)	0.0625 µg/mL (≈ 0.147 µM)	256 µg/mL (≈ 602 µM)	> 256 µg/mL
